Some test systems named below: NCI-H226; SF-539; NCI-H23; MOLT-4; A549; SW-620; HCC 2998; SF-268; SK-MEL-5; UACC-62; RXF 393; OVCAR-3; U-251; HCT-116; CAKI-1; RPMI-8226; HOP-92; OVCAR-4; M14; A498.
Experiment in all cases: NCI tumour cell line growth inhibition, 48 h

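In this assay, cells in 96-well plates receive the compound at five concentrations for 48 hours. Endpoints are linearly interpolated between the surrounding concentrations. The concentration for 50% growth inhibition is given as GI50.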 Calls of active or inactive are those of the source. No stated cut-off is given here; in the data, active = GI50 up to about 1.1 µM and inactive = higher. Bounds are passed on as bounds.

Turning to `Clc1cc(Cl)cc(C2SCc3nc4ccccc4n32)c1` (stereo not given), the GI50 was 19.9 µM (inactive) in the experiment with NCI-H226; 11.1 µM (inactive) in the experiment on SF-539; 17 µM (inactive) in the experiment with NCI-H23; 11.7 µM (inactive) with MOLT-4; 19.6 µM (inactive) in the experiment with A549; 11 µM (inactive) with SW-620. Moreover, the GI50 with HCC 2998 is > 10 µM (inactive); in the experiment on SF-268 it was 20.4 µM (inactive); in the experiment with SK-MEL-5 it was 12.7 µM (inactive); in the experiment on UACC-62, 21.5 µM (inactive); in the experiment with RXF 393, 14.6 µM (inactive); with OVCAR-3, 16.9 µM (inactive). Further, the GI50 with U-251 is 14 µM (inactive); in the experiment on HCT-116 it was > 10 µM (inactive); in the experiment with CAKI-1 it was 14.9 µM (inactive); in the experiment on RPMI-8226, 11.5 µM (inactive); in the experiment with HOP-92, 14.4 µM (inactive).

Regarding `CC12C3C4C1C1C2C3C41CO` (stereo not given), the GI50 with NCI-H226, in the experiment on OVCAR-4, with SF-539, with MOLT-4, with A549 and with SW-620 was > 100 µM (inactive) in each case. In addition, the GI50 in the experiment on SK-MEL-5, in the experiment on UACC-62, in the experiment on RXF 393, in the experiment on OVCAR-3, in the experiment on U-251 and in the experiment with M14 was > 100 µM (inactive) in each case. Besides, the GI50 in the experiment with HCT-116, in the experiment on CAKI-1, in the experiment with A498 and in the experiment on HOP-92 was > 100 µM (inactive) in each case.

As to `O=C(CCC(NC(=O)OCc1ccccc1)C(=O)OCc1ccccc1)Nc1cccc(OCc2ccccc2)c1` (stereo not given), the GI50 was 29.1 µM (inactive) in the experiment with NCI-H226; 30.2 µM (inactive) in the experiment with OVCAR-4; 19.2 µM (inactive) with SF-539; 20.3 µM (inactive) in the experiment with NCI-H23; 26.4 µM (inactive) in the experiment on MOLT-4; 35.7 µM (inactive) with A549. In addition, the GI50 in the experiment on SW-620 is 33.6 µM (inactive); in the experiment on HCC 2998 it was 42.7 µM (inactive); with SF-268, 28.6 µM (inactive); in the experiment on UACC-62 it was 32.8 µM (inactive); in the experiment on RXF 393, 23.8 µM (inactive); in the experiment with OVCAR-3 it was 22.3 µM (inactive). Also, the GI50 in the experiment with U-251 was 30.3 µM (inactive); in the experiment on M14 it was 20.4 µM (inactive); in the experiment on HCT-116, 19.2 µM (inactive); with CAKI-1, 31.2 µM (inactive); with HOP-92 it was 25 µM (inactive).

In the case of `O=C1c2ccccc2C2(c3ccc(Cl)cc3)N[C@H]3CCCC[C@@H]3N12` (stereo not given in full), the GI50 in the experiment with NCI-H226 is 61.1 µM (inactive); in the experiment with OVCAR-4, 84.3 µM (inactive); with NCI-H23 it was > 100 µM (inactive); in the experiment on MOLT-4, 36.7 µM (inactive); with A549 it was 77.6 µM (inactive); in the experiment with SW-620 it was > 100 µM (inactive). Further, the GI50 in the experiment with SF-268 was 48.8 µM (inactive); in the experiment on SK-MEL-5, > 100 µM (inactive); with UACC-62 it was > 100 µM (inactive); in the experiment with RXF 393 it was 97.9 µM (inactive); with OVCAR-3, > 100 µM (inactive); in the experiment with U-251 it was > 100 µM (inactive). The GI50 was 60.1 µM (inactive) with HCT-116; > 100 µM (inactive) in the experiment on CAKI-1; 54.1 µM (inactive) in the experiment with RPMI-8226; > 100 µM (inactive) in the experiment on A498; > 100 µM (inactive) in the experiment on HOP-92.

On to `COc1nc2c(N3CCCC3)nc(N3CCNCC3)nc2nc1NCc1ccccc1`, for which the GI50 with NCI-H226 is 2.34 µM (inactive); in the experiment with OVCAR-4 it was 3.03 µM (inactive); in the experiment with SF-539, 1.75 µM (inactive); in the experiment on NCI-H23, 2.16 µM (inactive); in the experiment on MOLT-4, 1.9 µM (inactive); with A549, 2.01 µM (inactive). Besides, the GI50 in the experiment on SW-620 was 2.77 µM (inactive); in the experiment with HCC 2998, 1.39 µM (inactive); in the experiment with SF-268, 2.03 µM (inactive); in the experiment with SK-MEL-5, 1.53 µM (inactive); in the experiment on UACC-62 it was 1.86 µM (inactive); in the experiment on RXF 393 it was 1.28 µM (inactive). Further, the GI50 is 0.755 µM (active) with OVCAR-3; 1.35 µM (inactive) in the experiment with U-251; 1.65 µM (inactive) with M14; 1.05 µM (active) in the experiment with HCT-116; 2.38 µM (inactive) in the experiment on CAKI-1; 1.69 µM (inactive) with RPMI-8226. Also, the GI50 in the experiment on HOP-92 was 1.79 µM (inactive).

With `Cn1c(=O)c2[nH]c(/N=N/N3CCN(CCO)CC3)nc2n(C)c1=O`, the GI50 with NCI-H226, in the experiment with OVCAR-4, in the experiment with SF-539, in the experiment on NCI-H23, in the experiment with MOLT-4 and in the experiment on A549 was > 100 µM (inactive) in each case. For the same compound, the GI50 in the experiment with SW-620, in the experiment with SF-268, in the experiment with SK-MEL-5, in the experiment on UACC-62, in the experiment on RXF 393 and with OVCAR-3 was > 100 µM (inactive) throughout. Moreover, the GI50 in the experiment with U-251, with M14, in the experiment on HCT-116, in the experiment on CAKI-1, in the experiment on RPMI-8226 and in the experiment on A498 was > 100 µM (inactive) throughout. The GI50 in the experiment on HOP-92 was > 100 µM (inactive).

In the case of `COc1ccc(CCc2ccc(O)c(C(=O)O)c2)cc1OC`, the GI50 in the experiment with NCI-H226 was > 100 µM (inactive); in the experiment with OVCAR-4 it was > 100 µM (inactive); with SF-539, 37.2 µM (inactive); in the experiment on NCI-H23 it was > 100 µM (inactive); in the experiment with MOLT-4, 59.2 µM (inactive); in the experiment on A549 it was > 100 µM (inactive). The GI50 with SW-620 is > 10 µM (inactive); in the experiment with HCC 2998, > 100 µM (inactive); in the experiment on SF-268, > 100 µM (inactive); in the experiment with SK-MEL-5, 98.9 µM (inactive); in the experiment on UACC-62 it was > 100 µM (inactive); with RXF 393 it was 63.5 µM (inactive). Further, the GI50 with OVCAR-3 was > 100 µM (inactive); in the experiment with U-251, > 100 µM (inactive); in the experiment with M14, > 100 µM (inactive); with HCT-116 it was 65.5 µM (inactive); with CAKI-1, 32.4 µM (inactive); in the experiment with RPMI-8226, > 100 µM (inactive). The GI50 in the experiment with HOP-92 was > 100 µM (inactive).

`COc1ccc2c(Cc3c4ccccc4cc4ccccc34)cncc2c1O`: the GI50 with NCI-H226 was 3.27 µM (inactive); with OVCAR-4 it was 5.37 µM (inactive); with SF-539, 0.245 µM (active); in the experiment with NCI-H23, 2.37 µM (inactive); in the experiment on MOLT-4, 2.68 µM (inactive); with A549, 3.44 µM (inactive). Besides, the GI50 is 0.857 µM (active) in the experiment on SW-620; 3.79 µM (inactive) with SF-268; 0.658 µM (active) in the experiment on SK-MEL-5; 2.9 µM (inactive) in the experiment with UACC-62; 3.4 µM (inactive) in the experiment on RXF 393; 1.98 µM (inactive) in the experiment on OVCAR-3. In addition, the GI50 in the experiment on U-251 is 1.45 µM (inactive); in the experiment with M14 it was 2.26 µM (inactive); in the experiment on HCT-116, 1.48 µM (inactive); in the experiment on CAKI-1, 4.15 µM (inactive); in the experiment with RPMI-8226, 1.85 µM (inactive); in the experiment on A498, 3.99 µM (inactive). Also, in the experiment on HOP-92, the GI50 was 1.81 µM (inactive).

On to `CCN(CC)CCn1nc2c3c(c(NCCN)ccc31)Sc1cc(O)ccc1-2`, for which the GI50 was 0.528 µM (active) in the experiment with OVCAR-4; 0.406 µM (active) in the experiment with SF-539; 0.451 µM (active) in the experiment with NCI-H23; 0.0396 µM (active) with MOLT-4; 0.176 µM (active) in the experiment on A549; 0.351 µM (active) with SW-620. The GI50 was 0.493 µM (active) with SF-268; 0.733 µM (active) with SK-MEL-5; 0.371 µM (active) with UACC-62; 1.14 µM (inactive) in the experiment with RXF 393; 2.43 µM (inactive) with OVCAR-3; 0.254 µM (active) in the experiment with U-251. The GI50 is 0.455 µM (active) in the experiment with M14; 0.327 µM (active) in the experiment with HCT-116; 0.516 µM (active) in the experiment on CAKI-1; 0.377 µM (active) in the experiment with RPMI-8226; 1.36 µM (inactive) in the experiment on A498; 0.94 µM (active) in the experiment with HOP-92.

Turning to `COc1ccc(C(=O)c2c3cc(OC)c(OC)c(OC)c3cc[n+]2C)cc1`, the GI50 is 19.7 µM (inactive) in the experiment with NCI-H226; > 10 µM (inactive) with SF-539; 23.7 µM (inactive) with NCI-H23; 20.5 µM (inactive) in the experiment on MOLT-4; 17.8 µM (inactive) in the experiment on A549; 34.4 µM (inactive) in the experiment on SW-620. For the same compound, the GI50 is 50.2 µM (inactive) in the experiment with HCC 2998; 37.9 µM (inactive) in the experiment on SF-268; 17.5 µM (inactive) with SK-MEL-5; 39.6 µM (inactive) in the experiment on RXF 393; 40 µM (inactive) with U-251; 29.6 µM (inactive) in the experiment with M14. In addition, the GI50 is 28 µM (inactive) with HCT-116, 10.2 µM (inactive) in the experiment with RPMI-8226 and 36.7 µM (inactive) in the experiment with A498.

With `COc1ccc(Nc2nc(N)c(C(=O)c3c[nH]c4ccccc34)s2)cc1`, the GI50 in the experiment on NCI-H226 was 11.1 µM (inactive); in the experiment with OVCAR-4, 5.42 µM (inactive); with SF-539, 2.42 µM (inactive); in the experiment with NCI-H23, 3.4 µM (inactive); with MOLT-4 it was 0.478 µM (active); in the experiment with A549, 1.41 µM (inactive). Moreover, the GI50 with SW-620 was 1.65 µM (inactive); in the experiment on SF-268, 6.84 µM (inactive); in the experiment with SK-MEL-5, 1.3 µM (inactive); with UACC-62, 5.79 µM (inactive); in the experiment on RXF 393 it was 2.03 µM (inactive); in the experiment on OVCAR-3, 0.745 µM (active). In addition, the GI50 in the experiment with U-251 is 1.58 µM (inactive); with M14, 1.23 µM (inactive); with HCT-116, 0.92 µM (active); in the experiment on CAKI-1, 2.18 µM (inactive); in the experiment on RPMI-8226, 0.998 µM (active); in the experiment with A498, 2.05 µM (inactive). Moreover, in the experiment on HOP-92, the GI50 was 5.36 µM (inactive).

(Values after ChEMBL document CHEMBL1201862, “PubChem BioAssay data set” (2004).)
